Test results taken from PMC11618496, “SHIV remission in macaques with early treatment initiation and ultra long-lasting antiviral activity” (Nature Communications, 2024).
Several values for one entry are separate records, joined by “and”; a condition that tells them apart may be missing. Equal values may be shown once.

What was measured:
[1] = for median concentration in PBMCs during the entire treatment period: eART + VES group; for median (range) concentration in PBMCs, period of full adherence / median (range) concentration in PBMCs, period of suboptimal adherence: eART group; for median (range) concentration in PBMCs, period of full adherence: months 0–3.5, 24 h post-dosing, oral FTC/TAF; for median (range) concentration in PBMCs, period of suboptimal adherence: months 3.5 to 6
Protocol: (§1) RT-SHIV was selected for the study since it contains the HIVHXBc2 RT that is sensitive to RPV. RT-SHIV was obtained through the NIH AIDS Reagent Program, Division of AIDS, NIAID, NIH[17]–[19]. The stock was maintained in liquid nitrogen in individual 1 mL aliquots until use. […] CAB LA and RPV LA were obtained from ViiV Healthcare and Janssen, respectively. […] CAB LA (50 mg/kg) and RPV LA (200 mg/kg) were given intramuscularly once a month[27],[45]. The macaque used in the terminal PK study received CAB LA (50 mg/kg) and RPV LA (200 mg/kg) from Cabenuva®.
(§2) PBMCs were isolated from blood collected in BD Vacutainer® CPT™ Sodium Citrate Cell Preparation Tubes, and red blood cells were lysed with BioLegend RBC lysis buffer. Cell counts and viability were determined using a Guava Cell Counter and Cytosoft data acquisition and analysis software (version 6.02; Millipore Billerica, MA) or a Countess (Invitrogen). Three million viable cells were pelleted, washed with 1 mL of physiological saline, and resuspended in 500 µl ice-cold 80% methanol. Samples were vortexed for 1 min and immediately frozen at − 70 °C. Prior to analysis, cellular debris was pelleted, and supernatants were transferred to new tubes. Supernatants were dried down and reconstituted in 100 μl of 50 mM ammonium acetate buffer (pH 7.0), then centrifuged at 17,000 × g to remove insoluble particulates. […] Calibration curves were generated from serially diluted standards over the range from 0.25 to 10 nM.

[2] = cited from earlier work; for median trough concentration in human PBMCs: reviewer comment, 25mg TAF dose ref 12
[3] = Intracellular TFV-DP and FTC-TP in lymph node mononuclear cells and rectal tissues; conditions: lymph node mononuclear cells from axillary or inguinal lymph nodes
[4] = CAB and RPV concentrations in macaque plasma; format: in vivo, Rhesus macaques; conditions: for median plasma levels during the treatment phase: macaques, monthly IM CAB LA 50 mg/kg and RPV LA 200 mg/kg; for plasma concentration, individual macaques: matched to CSF samples; for concentration at 4 weeks: matched to CSF: ~ 6 months of treatment, 4 weeks after the previous CAB LA/RPV LA injection, read-out: Plasma, median (range)
Protocol: Plasma concentrations of CAB were measured weekly.

[5] = Extracellular TFV, FTC, CAB and RPV in rectal tissue homogenates; format: in vivo, Rhesus macaques; conditions: collected after 1 to 3 months of ART
Protocol: (§3) A cocktail of methanol containing internal standards was added to precipitate proteins. After a brief centrifugation and removal of protein precipitates, the supernatant was evaporated to near dryness and re-suspended with mobile phase A. An aqueous-acetonitrile mobile-phase gradient was used to elute the drugs from a C18 column (100*1 mm, Imtakt) and into the analyzer. Drug concentrations were calculated from a standard curve with a range of 0.5–2000 ng/mL using Analyst software. […] Plasma concentrations of CAB were measured weekly. Plasma concentrations of RPV were measured 4 (9 observations), 2 (2 observations), or 3 (2 observations) weeks after the previous injection. The concentrations of RPV in plasma, CSF, and tissues and the concentrations of CAB in CSF were measured at the Clinical Pharmacology and Analytical Chemistry (CPAC) Laboratory, University of North Carolina Center for AIDS Research. The LOQ for RPV in plasma is 1 ng/mL.

[6] = Drug concentrations in cerebrospinal fluid (CSF); format: in vivo, Rhesus macaques; conditions: for Kp at 4 weeks: CSF and plasma, read-out: CSF-to-plasma ratio; for concentration at 4 weeks: CSF
Protocol: as §3

[7] = in vivo; conditions: female, rhesus monkey
Protocol: as §1, §3

[8] = cited from earlier work; for plasma levels in humans: 400 mg of CAB LA or 600 mg of RPV LA every month for 48 weeks ref 21; for apparent terminal elimination half-life: humans, single intramuscular injection ref 16
[9] = no reference given; cited from earlier work
[10] = no reference given; cited from earlier work; remark: listed apart in the source
[11] = set-up: method as in Letendre; conditions: 7-10 days after injection ref Letendre; cited from earlier work
[12] = system: reverse transcriptase; conditions: Rectal
Protocol: as §2

[13] = rhesus monkey, in vivo
[14] = rhesus monkey, plasma, intramuscular
[15] = rhesus monkey, intramuscular, 4 weeks after dosing (author rebuttal), read-out: macaque CSF values, approximate
[16] = rhesus monkey, other: oral (FTC) and intramuscular (CAB LA), ~ 6 months of treatment, 4 weeks after the previous CAB LA/RPV LA injection, read-out: CSF, median (range)
[17] = ~ 6 months of treatment, 4 weeks after the previous CAB LA/RPV LA injection
[18] = Tissue concentration, Axillary lymph nodes
[19] = Tissue concentration, Basal ganglia
[20] = Tissue concentration, Cerebellum
[21] = Tissue concentration, Cervical lymph nodes
[22] = Tissue concentration, Iliac lymph nodes
[23] = Tissue concentration, Inguinal lymph nodes
[24] = Tissue concentration, Mesenteric lymph nodes
[25] = Tissue concentration, Spinal cord
[26] = median concentration in brain tissues
[27] = median concentration in lymphoid tissues
[28] = median concentration in the GI tract

CC(Cn1cnc2c(N)ncnc21)OCP(=O)(O)OP(=O)(O)OP(=O)(O)O (stereo in doubt) [TFV-DP, tenofovir diphosphate]
fold higher concentrations in PBMCs and lymphoid tissues than achieved with TDF ([1]; comparison with ref 10): about 10 | median concentration in PBMCs during the entire treatment period [1]: 1162 fmols/10^6 PBMCs | median (range) concentration in PBMCs, period of full adherence [1]: 1753 (275–2809) fmols/10^6 PBMCs | median (range) concentration in PBMCs, period of suboptimal adherence [1]: 329 (63–1688) fmols/10^6 PBMCs | times higher in PBMCs than in humans ([1]; full adherence vs humans treated with 25 mg of TAF): about 3.2 | median trough concentration in human PBMCs [2]: 523 fmol/10^6 cells | Lymph nodes, median (range) [3]: 367 (142–620) fmol/10^6 cells

C[C@H]1CO[C@@H]2Cn3cc(C(=O)NCc4ccc(F)cc4F)c(=O)c(O)c3C(=O)N12 [CAB, cabotegravir]
median plasma levels during the treatment phase [4]: 2400 ng/mL | plasma concentration, individual macaques [4]: 1040 ng/mL and 1050 ng/mL and 630 ng/mL and 480 ng/mL | decline of plasma concentration below the PA-IC90 after the last injection [4, 14]: declined below the PA-IC90 two months later | times plasma level above the PA-IC90 during treatment [4, 14]: 13 | concentration at 4 weeks [4, 14]: 835 ng/mL | Rectal tissues, extracellular drug, median (range) [5]: 0.60 (0.25–2.65) ng/mg of tissue | Kp at 4 weeks ([6]; rhesus monkey, intramuscular): 0.006 | concentration at 4 weeks [6, 15]: ~6 ng/mL | concentration at 4 weeks [6, 16]: 5.95 ng/mL | CSF, median (range) [6, 17]: 5.95 (4.77–7.43) ng/mL | times brain tissue concentration above the in vitro EC90 ([7]; 3 weeks): ~ 100 | concentration at 3 weeks [7, 18]: 412 ng/g | concentration at 3 weeks [7, 19]: 26 ng/g | concentration at 3 weeks ([7]; Tissue concentration, Cecum): 1370 ng/g | concentration at 3 weeks [7, 20]: 58 ng/g | concentration at 3 weeks [7, 21]: 583 ng/g | concentration at 3 weeks ([7]; Tissue concentration, Duodenum): 569 ng/g | concentration at 3 weeks ([7]; Tissue concentration, Ileum): 695 ng/g | concentration at 3 weeks [7, 22]: 1280 ng/g | concentration at 3 weeks [7, 23]: 975 ng/g | concentration at 3 weeks ([7]; Tissue concentration, Jejunum): 643 ng/g | concentration at 3 weeks [7, 24]: 23700 ng/g | concentration at 3 weeks ([7]; Tissue concentration, Rectum): 773 ng/g | concentration at 3 weeks [7, 25]: 288 ng/g | concentration at 3 weeks [7, 26]: 58 ng/g | concentration at 3 weeks [7, 27]: 975 ng/g | concentration at 3 weeks [7, 28]: 695 ng/g | plasma levels in humans [8]: 2740 ng/mL | apparent terminal elimination half-life [8]: 39 to 80 days | protein-adjusted 90% inhibitory concentration (PA-IC90) [9]: 166 ng/mL | in vitro EC90 [10]: 0.34 ng/mL | human CSF levels [11]: ~10 ng/mL

Nc1nc(=O)n([C@@H]2CS[C@H](CO)O2)cc1F [FTC, emtricitabine]
Rectal tissues, extracellular drug, median (range) [5]: 1.48 (0.22–2.16) ng/mg of tissue | concentration at 4 weeks [6, 16]: 2.36 ng/mL | CSF, median (range) [6, 17]: 2.36 (BLQ-2.65) ng/mL

Nc1nc(=O)n([C@@H]2CS[C@H](COP(=O)(O)OP(=O)(O)OP(=O)(O)O)O2)cc1F [FTC-TP, emtricitabine triphosphate]
median concentration in PBMCs during the entire treatment period [1]: 553 fmols/10^6 PBMCs | median (range) concentration in PBMCs, period of full adherence [1]: 573 (333–1528) fmols/10^6 PBMCs | median (range) concentration in PBMCs, period of suboptimal adherence [1]: 306 (undetectable-964) fmols/10^6 PBMCs | fold lower in PBMCs than in humans ([1]; full adherence vs humans treated with 300 mg of FTC): approximately 3.6 | Panel F ratio dCTP/FTC-TP [12]: 82.22 and 103.48 | Rectal tissues, intracellular, median (range) [13]: BLQ (BLQ-17) | concentration in human PBMCs ([2]; humans treated with 25 mg of TAF (TFV-DP) or 300 mg of FTC (FTC-TP) ref 12): 2,060 fmols/10^6 PBMCs | median peak concentration in human PBMCs ([2]; reviewer comment ref 12): 5149 fmol/10^6 cells | median trough concentration in human PBMCs [2]: 2060 fmol/10^6 cells

Cc1cc(/C=C/C#N)cc(C)c1Nc1ccnc(Nc2ccc(C#N)cc2)n1 [RPV, rilpivirine]
median plasma levels during the treatment phase [4]: 108 ng/mL | plasma concentration, individual macaques [4]: 143 ng/mL and 152 ng/mL and 150 ng/mL and 153 ng/mL | persistence in plasma after the last dose [4, 14]: 2 years | concentration at 4 weeks [4, 14]: 151 ng/mL | Rectal tissues, extracellular drug, median (range) [5]: 0.45 (0.12–1.1) ng/mg of tissue | Kp at 4 weeks ([6]; rhesus monkey, intramuscular): 0.028 | concentration at 4 weeks [6, 15]: ~4 ng/mL | concentration at 4 weeks [6, 16]: 4.06 ng/mL | times CSF-to-plasma ratio higher than for CAB ([6]; rhesus monkey, in vivo): 4 | CSF, median (range) [6, 17]: 4.06 (2.93–4.52) ng/mL | times brain tissue concentration above the in vitro EC90 ([7]; 3 weeks): ~ 500 | times median brain tissue concentration higher than that of CAB ([7]; 3 weeks): 5.8 | concentration at 3 weeks [7, 18]: 773 ng/g | concentration at 3 weeks [7, 19]: 340 ng/g | concentration at 3 weeks ([7]; Tissue concentration, Cecum): 670 ng/g | concentration at 3 weeks [7, 20]: 259 ng/g | concentration at 3 weeks [7, 21]: 1770 ng/g | concentration at 3 weeks ([7]; Tissue concentration, Duodenum): 666 ng/g | concentration at 3 weeks ([7]; Tissue concentration, Ileum): 518 ng/g | concentration at 3 weeks [7, 22]: 736 ng/g | concentration at 3 weeks [7, 23]: 692 ng/g | concentration at 3 weeks ([7]; Tissue concentration, Jejunum): 697 ng/g | concentration at 3 weeks [7, 24]: 28800 ng/g | concentration at 3 weeks ([7]; Tissue concentration, Rectum): 447 ng/g | concentration at 3 weeks [7, 25]: 437 ng/g | concentration at 3 weeks [7, 26]: 340 ng/g | concentration at 3 weeks [7, 27]: 773 ng/g | concentration at 3 weeks [7, 28]: 666 ng/g | plasma levels in humans [8]: 97.5 ng/mL | apparent terminal elimination half-life [8]: 91 to 196 days | protein-adjusted 90% inhibitory concentration (PA-IC90) [9]: 12 ng/mL | in vitro EC90 [10]: 0.66 ng/mL | human CSF levels [11]: ~ 2 ng/ml

CC(C)OC(=O)[C@H](C)N[P@](=O)(CO[C@H](C)Cn1cnc2c(N)ncnc21)Oc1ccccc1 [TAF, tenofovir alafenamide]
fold higher concentrations of TFV-DP in lymphoid tissues and PBMCs over TDF [2]: ~ 6

C[C@H](Cn1cnc2c(N)ncnc21)OCP(=O)(O)O [TFV, tenofovir]
Rectal tissues, extracellular drug, median (range) [5]: 0.64 (0.18–0.87) ng/mg of tissue | CSF, median (range) [6, 17]: not detected and BLQ
